Source: patent publication US11564948B2, “Therapeutic methods using erythrocytes” (Sangui Bio Pty Ltd, priority 2015, dated 2023)

Test system: MIF
Assay: RBCs or RBC ghosts cultured in plasma with heparin or EDTA, MIF ELISA (Example 1)
Assay type: cell-based, human
Settings: addition of EDTA to the cell suspensions, compared with heparin treatment; FIG. 2
Description: To determine if the presence of anticoagulants alter the capacity for protein binding to red blood cells, these cells were incubated in plasma with or without heparin or EDTA. Whole blood from healthy volunteers was collected into EDTA vacutainers (3 mg/mL). Plasma was collected from blood collected into hepain and citrate vacutainers. […] The ghosts were then isolated by centrifugation (16,000 g, 20 minutes) and were resuspended in PBS. […] The red blood cells or ghosts were then cultured for 0, 1, or 18 hours at 37° C. As controls, EDTA plasma containing heparin or EDTA were culture under the same conditions. Following incubation, the cell free supernatants was collected and stored at −80° C. Prior to analysis, samples were subjected to ×3 freeze-thaw cycles. MIF concentration of the samples was quantified using a MIF ELISA.

Q: For `O=C(O)CN(CCN(CC(=O)O)CC(=O)O)CC(=O)O` [EDTA, ethylenediaminetetraacetic acid], which “MIF in the RBC lysates and ghosts 'lysates'” value is on record?
A: substantially less
